In ChEMBL document CHEMBL6127087 (Eur J Med Chem, 2024):
The source made the active and inactive calls. The calls are words filed in the database; no cut-off is given here.

Legend:
[1] = molecular target: P2Y purinoceptor 6 (Homo sapiens, UniProt Q15077); assay: Antagonist activity at human P2Y6R expressed in CHO cells assessed as inhibition of UDP sodium salt-induced Ca2+ level by FLIPR calcium 6 assay; type: functional, cell-based
[2] = system: Mus musculus; assay: (§1) Anti-inflammatory activity in LPS-induced male C57BL/6 mouse model of acute […] injury assessed as reduction in IL-1beta level in BALF at 2 mg/kg, IG preadministered with compound for 7 days followed by LPS administration and measured after 24 hrs by ELISA; type: functional, organism-based; conditions: time 8.0 day
[3] = system: Mus musculus; assay: Anti-inflammatory activity in LPS-induced male C57BL/6 mouse model of acute […] injury assessed as reduction in IL-6 level in BALF at 2 mg/kg, IG preadministered with compound for 7 days followed by LPS administration and measured after 24 hrs by ELISA; type: functional, organism-based; conditions: time 8.0 day
[4] = system: Mus musculus; assay: Anti-inflammatory activity in LPS-induced male C57BL/6 mouse model of acute […] injury assessed as reduction in TNF-alpha level in BALF at 2 mg/kg, IG preadministered with compound for 7 days followed by LPS administration and measured after 24 hrs by ELISA; type: functional, organism-based; conditions: time 8.0 day
[5] = system: Mus musculus; assay: Anti-inflammatory activity in LPS-induced male C57BL/6 mouse model of acute […] injury assessed as reduction in infiltration of immune cells by measuring decrease in WBC count at 2 mg/kg, IG preadministered with compound for 7 days followed by LPS administration and measured after 24 hrs; type: functional, organism-based; conditions: time 8.0 day
[6] = system: Mus musculus; assay: Anti-inflammatory activity in LPS-induced male C57BL/6 mouse model of acute […] injury assessed as reduction in infiltration of immune cells by measuring decrease in neutrophil count at 2 mg/kg, IG preadministered with compound for 7 days followed by LPS administration and measured after 24 hrs; type: functional, organism-based; conditions: time 8.0 day
[7] = system: Mus musculus; assay: Anti-inflammatory activity in LPS-induced male C57BL/6 mouse model of acute […] injury assessed as reduction in infiltration of immune cells by measuring decrease in lymphocytes count at 2 mg/kg, IG preadministered with compound for 7 days followed by LPS administration and measured after 24 hrs; type: functional, organism-based; conditions: time 8.0 day
[8] = system: Mus musculus; assay: Anti-inflammatory activity in LPS-induced male C57BL/6 mouse model of acute […] injury assessed as reduction in infiltration of immune cells by measuring decrease in monocytes count at 2 mg/kg, IG preadministered with compound for 7 days followed by LPS administration and measured after 24 hrs; type: functional, organism-based; conditions: time 8.0 day
[9] = system: Mus musculus; assay: as §1, with “alveolar septa thickening” for “IL-1beta level”, “lung” for “BALF”, “H and E staining based histopathological analysis” for “ELISA”; type: functional, organism-based; conditions: time 8.0 day
[10] = system: Mus musculus; assay: as §1, with “tissue destruction” for “IL-1beta level”, “lung” for “BALF”, “H and E staining based histopathological analysis” for “ELISA”; type: functional, organism-based; conditions: time 8.0 day
[11] = system: Mus musculus; assay: as §1, with “interstitial edema” for “IL-1beta level”, “lung” for “BALF”, “H and E staining based histopathological analysis” for “ELISA”; type: functional, organism-based; conditions: time 8.0 day
[12] = system: Mus musculus; assay: as §1, with “inflammatory infiltration” for “IL-1beta level”, “lung” for “BALF”, “H and E staining based histopathological analysis” for “ELISA”; type: functional, organism-based; conditions: time 8.0 day
[13] = system: Mus musculus; assay: as §1, with “absence of lesion” for “reduction”, “lung parenchyma” for “IL-1beta level in BALF”, “H and E staining based histopathological analysis” for “ELISA”; type: functional, organism-based; conditions: time 8.0 day
[14] = system: Mus musculus; assay: as §1, with “intact appearance of alveolar structure” for “reduction”, “lung” for “IL-1beta level in BALF”, “H and E staining based histopathological analysis” for “ELISA”; type: functional, organism-based; conditions: time 8.0 day
[15] = system: Mus musculus; assay: as §1, with “hyperemia of pulmonary alveolar septa” for “IL-1beta level”, “lung” for “BALF”, “H and E staining based histopathological analysis” for “ELISA”; type: functional, organism-based; conditions: time 8.0 day
[16] = molecular target: P2Y purinoceptor 12 (Homo sapiens, UniProt Q9H244); assay: Antagonist activity at human P2Y12R stably expressed in HEK293 cells assessed as inhibition of MeSADP-induced cAMP accumulation preincubated with compound for 30 mins followed by MeSADP addition by cAMP-GloTM assay; type: functional, cell-based
Sequence of P2Y purinoceptor 12 (Q9H244 whole entry): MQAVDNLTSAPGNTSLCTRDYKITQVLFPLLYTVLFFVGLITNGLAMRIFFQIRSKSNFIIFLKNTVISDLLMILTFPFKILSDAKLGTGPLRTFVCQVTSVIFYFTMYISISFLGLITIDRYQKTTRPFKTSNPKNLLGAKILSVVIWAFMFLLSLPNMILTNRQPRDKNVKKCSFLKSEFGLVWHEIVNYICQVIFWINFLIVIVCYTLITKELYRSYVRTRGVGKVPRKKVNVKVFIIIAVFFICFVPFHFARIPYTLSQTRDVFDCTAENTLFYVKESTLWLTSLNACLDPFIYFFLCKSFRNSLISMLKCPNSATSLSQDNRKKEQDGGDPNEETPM

[17] = molecular target: P2Y purinoceptor 4 (Homo sapiens, UniProt P51582); assay: Antagonist activity at human P2Y4R stably expressed in HEK293 cells assessed as inhibition of UTP-induced IP3 accumulation preincubated with compound for 30 mins followed by UTP addition by ELISA
Sequence of P2Y purinoceptor 4 (P51582 whole entry): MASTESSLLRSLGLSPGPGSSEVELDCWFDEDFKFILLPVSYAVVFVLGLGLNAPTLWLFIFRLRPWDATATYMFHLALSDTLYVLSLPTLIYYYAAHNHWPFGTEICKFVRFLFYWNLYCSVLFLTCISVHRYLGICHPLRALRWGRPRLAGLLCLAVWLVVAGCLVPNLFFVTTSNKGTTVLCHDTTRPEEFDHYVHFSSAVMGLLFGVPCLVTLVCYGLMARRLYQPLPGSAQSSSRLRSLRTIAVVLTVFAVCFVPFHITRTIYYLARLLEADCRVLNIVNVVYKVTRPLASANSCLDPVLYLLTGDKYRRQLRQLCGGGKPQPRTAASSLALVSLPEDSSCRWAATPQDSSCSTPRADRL

[18] = Cmax in male Sprague-Dawley rat at 10 mg/kg, iv measured after 24 hrs by LC-MS/MS analysis; type: ADME, organism-based; conditions: in vivo, iv, 10 mg/kg, 24 h
[19] = Half-life in male Sprague-Dawley rat at 10 mg/kg, iv measured after 24 hrs by LC-MS/MS analysis; type: ADME, organism-based; conditions: in vivo, iv, 10 mg/kg, 24 h
[20] = Tmax in male Sprague-Dawley rat at 10 mg/kg, iv measured after 24 hrs by LC-MS/MS analysis; type: ADME, organism-based; conditions: in vivo, iv, 10 mg/kg, 24 h
[21] = AUC (0 to 24 hrs) in male Sprague-Dawley rat at 10 mg/kg, iv measured after 24 hrs by LC-MS/MS analysis; type: ADME, organism-based; conditions: in vivo
[22] = Clearance in male Sprague-Dawley rat at 10 mg/kg, iv measured after 24 hrs by LC-MS/MS analysis; type: ADME, organism-based; conditions: in vivo
[23] = Cmax in male Sprague-Dawley rat at 20 mg/kg, po measured after 24 hrs by LC-MS/MS analysis; type: ADME, organism-based; conditions: in vivo, po, 20 mg/kg, 24 h
[24] = Half-life in male Sprague-Dawley rat at 20 mg/kg, po measured after 24 hrs by LC-MS/MS analysis; type: ADME, organism-based; conditions: in vivo, po, 20 mg/kg, 24 h
[25] = Tmax in male Sprague-Dawley rat at 20 mg/kg, po measured after 24 hrs by LC-MS/MS analysis; type: ADME, organism-based; conditions: in vivo, po, 20 mg/kg, 24 h
[26] = AUC (0 to 24 hrs) in male Sprague-Dawley rat at 20 mg/kg, po measured after 24 hrs by LC-MS/MS analysis; type: ADME, organism-based; conditions: in vivo, po, 20 mg/kg, 24 h
[27] = Clearance in male Sprague-Dawley rat at 20 mg/kg, po measured after 24 hrs by LC-MS/MS analysis; type: ADME, organism-based; conditions: in vivo
[28] = Oral bioavailability in male Sprague-Dawley rat at 20 mg/kg measured after 24 hrs by LC-MS/MS analysis; type: ADME, organism-based; conditions: in vivo, po, 20 mg/kg, 24 h

Sequence of P2Y purinoceptor 6 (Q15077 whole entry): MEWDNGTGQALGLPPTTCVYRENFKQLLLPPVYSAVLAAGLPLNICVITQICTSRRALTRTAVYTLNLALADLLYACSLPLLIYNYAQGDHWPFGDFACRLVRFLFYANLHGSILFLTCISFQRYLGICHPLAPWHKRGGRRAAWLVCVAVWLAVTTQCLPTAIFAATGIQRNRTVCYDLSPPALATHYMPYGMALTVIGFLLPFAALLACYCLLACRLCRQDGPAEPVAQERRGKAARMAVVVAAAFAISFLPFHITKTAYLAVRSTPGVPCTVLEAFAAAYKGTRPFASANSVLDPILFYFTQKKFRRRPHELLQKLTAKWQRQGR

SMILES	IC50 [1]	other results
Cc1ccc2cc(C3CC(c4ccco4)=NN3C(=O)CCCC(=O)O)c(Cl)nc2c1 (stereo unspecified)	> 500 nM	–
Cc1ccc2cc(C3CC(c4cccc(C(F)(F)F)c4)=NN3C(=O)CCC(=O)O)c(Cl)nc2c1 (stereo unspecified)	> 500 nM	–
Cc1ccc2cc(C3CC(c4cccs4)=NN3C(=O)CCC(=O)O)c(Cl)nc2c1 (stereo unspecified)	324 nM	–
C[C@@H]1C[C@H]2[C@@H]3CCC4=CC(=O)C=C[C@]4(C)[C@@]3(F)[C@@H](O)C[C@]2(C)[C@@]1(O)C(=O)CO	–	Activity [2]: Active; Activity [3]: Active; Activity [4]: Active; Activity [5]: Active; Activity [6]: Active; Activity [7]: Active; Activity [8]: Active; Activity [9]: Active; Activity [10]: Active; Activity [11]: Active; Activity [12]: Active; Activity [13]: Active; Activity [14]: Active; Activity [15]: Active
O=C(O)CCC(=O)N1N=C(c2ccc[nH]2)CC1c1cc2ccc(F)cc2nc1Cl (stereo unspecified)	421 nM	–
Cc1ccc2cc(C3CC(c4ccc5ccccc5c4)=NN3C(=O)CCC(=O)O)c(Cl)nc2c1 (stereo unspecified)	> 500 nM	–
Cc1ccc2cc(C3CC(c4ccc(O)cc4)=NN3C(=O)CCC(=O)O)c(Cl)nc2c1 (stereo unspecified)	> 500 nM	–
Cc1cccc(C2=NN(C(=O)CCC(=O)O)C(c3cc4ccc(C)cc4nc3Cl)C2)c1 (stereo unspecified)	125 nM	–
CCCSc1nc(N[C@@H]2C[C@H]2c2ccc(F)c(F)c2)c2nnn([C@@H]3C[C@H](OCCO)[C@@H](O)[C@H]3O)c2n1 [TICAGRELOR]	–	IC50 [16]: 1220 nM
Cc1ccc2nc(Cl)c(C3CC(c4ccccc4)=NN3C(=O)CCC(=O)O)cc2c1 (stereo unspecified)	106 nM	–
O=C(O)CCC(=O)N1N=C(c2ccc[nH]2)CC1c1cc2ccccc2nc1Cl (stereo unspecified)	249 nM	–
Cc1ccc2cc(C3CC(c4ccco4)=NN3C(=O)C=CC(=O)O)c(Cl)nc2c1 (stereo unspecified)	291 nM	–
COc1ccc(C2=NN(C(=O)CCC(=O)O)C(c3cc4ccc(C)cc4nc3Cl)C2)cc1 (stereo unspecified)	106 nM	–
O=C(O)CCC(=O)N1N=C(c2ccco2)CC1c1cc2ccc(F)cc2nc1Cl (stereo unspecified)	210 nM	–
Cc1ccc2cc(C3CC(c4ccccc4F)=NN3C(=O)CCC(=O)O)c(Cl)nc2c1 (stereo unspecified)	> 500 nM	–
O=C(O)CCC(=O)N1N=C(c2ccco2)CC1c1cc2ccccc2nc1Cl (stereo unspecified)	186 nM	–
O=C(O)CCC(=O)N1N=C(c2ccccc2)CC1c1cc2ccccc2nc1Cl (stereo unspecified)	274 nM	–
O=C(O)/C=C\C(=O)N1N=C(c2ccc[nH]2)CC1c1cnc2ccccc2c1 (stereo unspecified)	386 nM	–
O=C(O)CCCC(=O)N1N=C(c2ccc[nH]2)CC1c1cnc2ccccc2c1 (stereo unspecified)	200 nM	–
Cc1ccc2cc(C3CC(c4c[nH]c5ccccc45)=NN3C(=O)CCC(=O)O)c(Cl)nc2c1 (stereo unspecified)	148 nM	–
Cc1ccc2cc(C3CC(c4cccnc4)=NN3C(=O)CCC(=O)O)c(Cl)nc2c1 (stereo unspecified)	279 nM	–
O=C(C1CC1)N1CCc2cc(Br)c(S(=O)(=O)Nc3ccc(Cl)c(C(F)(F)F)c3)cc21	–	IC50 [17]: 12500 nM
O=C(O)CCC(=O)N1N=C(c2ccccc2)CC1c1cc2ccc(F)cc2nc1Cl (stereo unspecified)	187 nM	–
Cc1ccc2cc(C3CC(c4ccc(-c5ccccc5)cc4)=NN3C(=O)CCC(=O)O)c(Cl)nc2c1 (stereo unspecified)	168 nM	Cmax [18]: 864 ng/mL; t1/2 [19]: 6 min; Tmax [20]: 9 min; AUC [21]: 1854 ng·h/mL; clearance [22]: 13.5 mL/min/kg; Cmax [23]: 1211 ng/mL; t1/2 [24]: 12 min; Tmax [25]: 14 min; AUC [26]: 2356 ng·h/mL; CL/F [27]: 20.1 mL/min/kg; F [28]: 16%

More lines, main results first:

IC50 [1]	SMILES	other results
69.4 nM	Cc1ccc2cc(C3CC(c4ccc(C(C)(C)C)cc4)=NN3C(=O)CCC(=O)O)c(Cl)nc2c1 (stereo unspecified)	–
26.7 nM	O=C(O)CCC(=O)N1N=C(c2ccco2)CC1c1cnc2ccccc2c1 (stereo unspecified)	–
53.7 nM	Cc1cccc2cc(C3CC(c4ccc[nH]4)=NN3C(=O)CCC(=O)O)c(Cl)nc12 (stereo unspecified)	–
84.6 nM	Cc1ccc(C2=NN(C(=O)CCC(=O)O)C(c3cc4ccc(C)cc4nc3Cl)C2)cc1 (stereo unspecified)	–
77.5 nM	COc1cccc(C2=NN(C(=O)CCC(=O)O)C(c3cc4ccc(C)cc4nc3Cl)C2)c1 (stereo unspecified)	–
52.8 nM	Cc1ccc2nc(Cl)c(C3CC(c4ccco4)=NN3C(=O)CCC(=O)O)cc2c1 (stereo unspecified)	–
66.8 nM	Cc1ccc2nc(Cl)c(C3CC(c4ccc[nH]4)=NN3C(=O)CCC(=O)O)cc2c1 (stereo unspecified)	–
39.8 nM	O=C(O)CCC(=O)N1N=C(c2ccccc2)CC1c1cnc2ccccc2c1 (stereo unspecified)	–
34.6 nM	Cc1cccc2cc(C3CC(c4ccco4)=NN3C(=O)CCC(=O)O)c(Cl)nc12 (stereo unspecified)	–
41.5 nM	Cc1cccc2cc(C3CC(c4ccccc4)=NN3C(=O)CCC(=O)O)c(Cl)nc12 (stereo unspecified)	–
26.5 nM	Cc1ccc2cc(C3CC(c4ccco4)=NN3C(=O)CCC(=O)O)c(Cl)nc2c1 (stereo unspecified)	–
29.6 nM	Cc1ccc2cc(C3CC(c4ccc[nH]4)=NN3C(=O)CCC(=O)O)c(Cl)nc2c1 (stereo unspecified)	–
54.6 nM	Cc1ccc2cc(C3CC(c4ccccc4)=NN3C(=O)CCC(=O)O)c(Cl)nc2c1 (stereo unspecified)	–
